Reference: US11628186B2, “Method and composition for the reduction of viral replication, duration and spread of the COVID-19 and the flu” (priority 2017, dated 2023)
Where two headings read alike, the source gives them in different places.

Tests used:
[1] = test system: non-cancerous cells; assay: Viable non-cancerous cells after incubation with anticancer drugs in various media (Table VIII); type: cell-based; parameters: viability: concentration or dose not given beside the values; details: for Percentage of viable cells after incubation with drugs: drug alone
Experimental: (§1) Peripheral blood monocytes and U937 monocytic leukemia tumor cells were placed in sterile culture flasks and maintained in culture using Dulbecco's Minimal Essential Medium, with 10% fetal calf serum, supplemented with 2 mM glutamine and Pen/Strep. The cytotoxicity of the cytotoxic agent on the cells was analyzed by propidium iodide exclusion techniques and flow cytometric quantitation. Viability of the cells was quantified as the number of cells that excluded the vital dye trypan blue. Sodium pyruvate was dissolved in distilled water and the solution was adjusted to pH 7.4 with calcium, phosphate and magnesium. Solutions were sterile filtered. Stock solutions were prepared so that the vehicle would not be more than 1% of the total volume of the culture media. H-Thymidine Radiosotopic Incorporation Measurement of Cytotoxity. The membrane surfactant enhancers agents (sodium pyruvate and calcium, phosphate and magnesium), was examined for their ability to decrease the Cytotoxity of Doxorubicin to U937 monocytic leukemia cells and normal peripheral blood monocytes. […] Susceptibility studies were conducted to determine the optimal treatment time of the cells with the […] agents prior to treatment of the cells with the cytotoxic agent. The normal cells and U937 leukemic tumor cells were pretreated separately in “wash out” studies with the single agents alone, and in combination, at the optimal concentration described above for various time periods, washed with fresh medium to remove the agents, and treated with the cytotoxic agent. The co-culture of normal and U937 leukemic […] cells was treated essentially in the same manner except that the cells were not treated separately, but co-cultured. […] The cells were then placed in culture medium without the protective agents. […] Normal and U937 tumor cells were co-cultured and the Cytotoxity of Doxorubicin on the cells was determined by viability assays which examined the differential ability of the cytoprotective compositions alone, and in combinations, to protect the normal cells from the Cytotoxity of the chemotherapeutic agent. The cells were isolated and examined for morphological evidence of cytotoxicity or prevention of cytotoxicity. […] DNA synthesis studies using 3Hthymidine (1 uCi/well) were carried out 4 hours prior to termination of the experiment to determine the effect of the formulations on the proliferation of the cells as a measure of the prevention of cytotoxicity and the extent of Doxorubicin-induced cytotoxicity. Propidium iodide exclusion analysis was carried out for direct quantitation of the cytotoxicity and the prevention of cytotoxicity. Each set of studies was performed in triplicate so that statistical analysis of the significant differences between the treatment groups could be conducted. […] Wash-out studies were conducted to determine viability of the peripheral blood monocytes co-cultured with U937 monocytic leukemia cells after 24 hour pretreatment of the cells with the surfactant enhancer, which is also a mitochondrial protective agent, followed by administration of Doxorubicin.

[2] = test system: patients with lung diseases including COPD; assay: Comparison of inhaled salts of pyruvate, 5 ml of 0.5 mM solution (Table I); details: for FEV1: 5 mls of a 0.5 mM pyruvate inhalation solution in COPD and asthmatic patients
Experimental: All previous studies using pyruvate to treat Allergic Rhinitis, Asthmatic and COPD patients used only the sodium salt form of pyruvic acid in saline. The drug products that were tested in the six Phase I/II clinical trial were differing concentrations of sodium pyruvate dissolved in 0.9% sodium chloride solution (Saline). These drug products contained 0.5 mM, 1.5 mM, or 5.0 mM of sodium pyruvate in physiological saline. They were administered to normal volunteers and COPD and asthmatics by inhalation therapy. […] Various sodium pyruvate solutions were evaluated in the lungs for their ability to enhance FEV1 values and reduce coughing, and lung tightness.
The amount of the salts delivered in the 5 ml's of the 0.5 mM pyruvate solutions were compared to the amounts of the salts in 5 ml's of human blood. […] When ethyl pyruvate reacts with oxygen radical like hydrogen peroxide, it is converted to ethane and alcohol and Co2 and acetate. Ethane and alcohol are lung irritants.
This formula can also be made by adding 3% calcium phosphate or dicalcium phosphate to the standard 0.5 mM to 30 mM sodium pyruvate saline solution see Table I.

[3] = test system: patients with sinus & lung diseases including IPF and COPD; assay: Salts of pyruvate as 20 mM nasal sprays (Table IX)
Text: They never tested the individual salts for their ability to reduce inflammation or increase lung functions.

[4] = test system: patients with lung diseases including COPD; assay: Comparison of inhaled salts of pyruvate, 5 ml of 5 mM solution (Table II)
[5] = Viable non-cancerous cells after incubation with anticancer drugs in various media (Table VIII); type: cell-based; parameters: viability: concentration or dose not given beside the values; details: non-cancerous cells (normal peripheral blood monocytes)
Experimental: as §1

[6] = Drugs in commercial formula with sodium chloride only
[7] = Drugs in commercial formula with sodium pyruvate with calcium & phosphate & Magnesium ions repeat study
[8] = 5 ml of 0.5 mM solution in physiological saline, inhaled
[9] = 5 ml of 0.5 mM solution, inhaled
[10] = 5 ml of 0.5 mM solution, 1 most negative, 10 best
[11] = 20 mM (0.22%) nasal spray, 1 most negative, 10 best
[12] = 5 ml of 5 mM solution in saline, inhaled
[13] = 5 ml of 5 mM solution, 1 most negative, 10 best
[14] = Drugs in commercial formula with sodium chloride only, read-out: Percentage of viable non-cancerous cells
[15] = Drugs in commercial formula with sodium pyruvate with calcium & phosphate & Magnesium ions repeat study, read-out: Percentage of viable non-cancerous cells
[16] = Drugs in commercial formula with sodium pyruvate with calcium & phosphate & magnesium ions, read-out: Percentage of viable non-cancerous cells
[17] = Drugs in commercial formula with sodium pyruvate without calcium & phosphate & magnesium, read-out: Percentage of viable non-cancerous cells
[18] = drug alone, read-out: Percentage of viable cells after incubation with drugs
[19] = Drugs in commercial formula with sodium pyruvate with calcium & phosphate & magnesium ions
[20] = Drugs in commercial formula with sodium pyruvate without calcium & phosphate & magnesium
[21] = 5 mls of a 0.5 mM inhalation solution
[22] = 20 mM (0.22%) nasal spray in 0.9% sodium chloride

Row | Molecule | Percentage of viable non-cancerous cells [1, 6] | Percentage of viable cells after incubation with drugs [1] | Increased in FEV-1% ([3]; in vivo) | Percentage Increase in SaO2 over baseline ([3]; in vivo) | Percentage increase of Nitric Oxide over baseline ([3]; in vivo) | Relief of congestion, coughing and lung tightness ([3]; in vivo) | Increased in FEV-1% lung function [2, 8] | Percentage Increase in SaO2 over baseline [2, 9] | Percentage decrease or increase of Nitric Oxide over baseline [2, 9] | Relief of congestion, coughing and lung tightness [2, 9] | Overall Rating 1-10 [2, 10] | Overall Rating 1-10 [3, 11] | Increased in FEV-1% [4, 12] | Percentage Increase in SaO2 over baseline ([4]; 5 ml of 5 mM solution, inhaled) | Percentage increase of Nitric Oxide over baseline ([4]; 5 ml of 5 mM solution, inhaled) | Relief of congestion, coughing and lung tightness ([4]; 5 ml of 5 mM solution, inhaled) | Overall Rating 1-10 [4, 13] | also measured
1 | N.N.O=C([O-])C1(C(=O)[O-])CCC1.[Pt+2] [Carboplatin] | 50% | 42% |  |  |  |  |  |  |  |  |  |  |  |  |  |  |  | Percentage of viable non-cancerous cells [1, 7]: 97%
2 | O=P(O)(O)O [Potassium Phosphate, reference compound] |  |  | 0.0% | No | 0% | 4 |  |  |  |  |  |  |  |  |  |  |  | Increased in FEV-1% lung function ([2]; in vivo): 0%; Overall Rating 1-10 ([2]; in vivo): 3; Percentage Increase in SaO2 over baseline ([2]; in vivo): No; Percentage decrease or increase of Nitric Oxide over baseline ([2]; in vivo): 0%; Relief of congestion, coughing and lung tightness ([2]; in vivo): 4; Overall Rating 1-10 ([3]; in vivo): 3; Increased in FEV-1% ([4]; in vivo): 0%; Overall Rating 1-10 ([4]; in vivo): 3; Percentage Increase in SaO2 over baseline ([4]; in vivo): No; Percentage increase of Nitric Oxide over baseline ([4]; in vivo): 0%; Relief of congestion, coughing and lung tightness ([4]; in vivo): 4
3 | CC(=O)C(=O)[O-].[K+] [Potassium, potassium pyruvate] |  |  | 6.1% | no | 10.0% | 5 | 8.0% | no | −14% | 5 | 7 | 6 | 2.1% | no | 25.0% | 5 | 7 | Irritation [2, 9]: None; FEV1 [2]: lower FEV1 results; Irritation ([3]; in vivo): None; Irritation ([4]; 5 ml of 5 mM solution, inhaled): None
4 | CC(C)(C#N)c1cc(Cn2cncn2)cc(C(C)(C)C#N)c1 [anastrozole] |  |  |  |  |  |  |  |  |  |  |  |  |  |  |  |  |  | viability [5, 14]: 25%; viability [5, 15]: 94%; viability [5, 16]: 86%; viability [5, 17]: 50%; viability [5, 18]: 24%
5 | O=c1[nH]c(=O)n([C@H]2C[C@H](O)[C@@H](CO)O2)cc1F [floxuridine] |  |  |  |  |  |  |  |  |  |  |  |  |  |  |  |  |  | viability [5, 14]: 38%; viability [5, 15]: 91%; viability [5, 16]: 92%; viability [5, 17]: 58%; viability [5, 18]: 38%
6 | CN(Cc1cnc2nc(N)nc(N)c2n1)c1ccc(C(=O)N[C@@H](CCC(=O)O)C(=O)O)cc1 [methotrexate] |  |  |  |  |  |  |  |  |  |  |  |  |  |  |  |  |  | viability [5, 14]: 43%; viability [5, 15]: 98%; viability [5, 16]: 94%; viability [5, 17]: 68%; viability [5, 18]: 42%
7 | O=C1[O][Pt]2([NH][C@@H]3CCCC[C@H]3[NH]2)[O]C1=O [oxaliplatin] | 24% | 23% |  |  |  |  |  |  |  |  |  |  |  |  |  |  |  | Percentage of viable non-cancerous cells [1, 7]: 98%; Percentage of viable non-cancerous cells [1, 19]: 95%; Percentage of viable non-cancerous cells [1, 20]: 41%
8 | Bevacizumab | 27% | 21% |  |  |  |  |  |  |  |  |  |  |  |  |  |  |  | Percentage of viable non-cancerous cells [1, 20]: 40%
9 | Bleomycin | 33% | 31% |  |  |  |  |  |  |  |  |  |  |  |  |  |  |  | Percentage of viable non-cancerous cells [1, 7]: 98%; Percentage of viable non-cancerous cells [1, 19]: 98%; Percentage of viable non-cancerous cells [1, 20]: 47%
10 | aluminum pyruvate |  |  |  |  |  |  | 0% | No | +8.0% | 1 | 3 | 1 | 0% | No | 15.0% | 1 | 4 | reduction of nitric oxide [2, 21]: did not reduce nitric oxide; Increased in FEV-1% [3, 22]: 0.0%; Percentage Increase in SaO2 over baseline [3, 22]: No; Percentage increase of Nitric Oxide over baseline [3, 22]: 00.0%; Relief of congestion, coughing and lung tightness [3, 22]: 1
11 | calcium pyruvate |  |  | 7.0% | 1% | 17.0% | 5 | 10.0% | no | −18% | 5 | 7 | 7 | 1.0% | 1% | 17.0% | 5 | 7 | Irritation [2, 9]: None; FEV1 [2]: 10%; Irritation ([3]; in vivo): None; Irritation ([4]; 5 ml of 5 mM solution, inhaled): None
12 | manganese pyruvate |  |  |  |  |  |  | 3.0% | No | −2.0% | 4 | 3 | 3 | 3.0% | No | 25.0% | 4 | 3 | reduction of nitric oxide [2, 21]: did not reduce nitric oxide; Increased in FEV-1% [3, 22]: 0.0%; Percentage Increase in SaO2 over baseline [3, 22]: No; Percentage increase of Nitric Oxide over baseline [3, 22]: 2.0%; Relief of congestion, coughing and lung tightness [3, 22]: 4
13 | zinc pyruvate |  |  | 1.0% | No | 2.0% | 4 | 8.0% | No | +10% | 4 | 4 | 3 | 1.0% | No | 22.0% | 4 | 3 | Irritation [2, 9]: Yes; increased nitric oxide levels [2, 21]: 10%; reduction of nitric oxide [2, 21]: did not reduce nitric oxide; Irritation ([2]; inhaled into the lungs): irritating; Irritation ([3]; in vivo): Yes; Irritation ([4]; 5 ml of 5 mM solution, inhaled): Yes
